ChEMBL document CHEMBL1151324, “Cytotoxic geranyl stilbenes from Macaranga schweinfurthii” (J Nat Prod, 1998)
In brackets after ≈: the same amount, converted by molar mass.

What was measured:
[1] = test system: ACHN; assay: Cytotoxicity against human ACHN cells; type: functional; conditions: for TGI: read-out: pTGI (converted)
[2] = test system: NCI-H322M; assay: Cytotoxicity against human NCI-H322M cells; type: functional; conditions: for TGI: read-out: pTGI (converted)
[3] = test system: DU-145; assay: Cytotoxicity against human DU145 cells; type: functional; conditions: for CC50: read-out: pLC50 (the source's name) (converted); for TGI: read-out: pTGI (converted)
[4] = test system: BT-549; assay: Cytotoxicity against human BT549 cells; type: functional; conditions: for CC50: read-out: pLC50 (the source's name) (converted); for TGI: read-out: pTGI (converted)
[5] = test system: K562; assay: Cytotoxicity against human K562 cells; type: functional; conditions: for TGI: read-out: pTGI (converted)
[6] = test system: MDA-N; assay: Cytotoxicity against human MDA-N cells; type: functional; conditions: for CC50: read-out: pLC50 (the source's name) (converted); for TGI: read-out: pTGI (converted)
[7] = test system: TK-10; assay: Cytotoxicity against human TK10 cells; type: functional; conditions: for TGI: read-out: pTGI (converted)
[8] = test system: SN12C; assay: Cytotoxicity against human SN12C cells; type: functional; conditions: for TGI: read-out: pTGI (converted)
[9] = test system: LOX IMVI; assay: Cytotoxicity against human LOXIMVI cells; type: functional; conditions: for TGI: read-out: pTGI (converted)
[10] = test system: NCI-H522; assay: Cytotoxicity against human NCI-H522 cells; type: functional; conditions: for TGI: read-out: pTGI (converted)
[11] = test system: IGROV-1; assay: Cytotoxicity against human IGROV1 cells; type: functional; conditions: for TGI: read-out: pTGI (converted)
[12] = test system: A549; assay: Cytotoxicity against human A549 cells after 1 hr; type: functional, cell-based; conditions: A549, 1 h
[13] = test system: EKVX; assay: Cytotoxicity against human EKVX cells; type: functional; conditions: for TGI: read-out: pTGI (converted)
[14] = test system: MCF7; assay: Cytotoxicity against human doxorubicin-resistant MCF7 cells; type: functional; conditions: for CC50: read-out: pLC50 (the source's name) (converted); for TGI: read-out: pTGI (converted)
[15] = test system: PC-3; assay: Cytotoxicity against human PC3 cells; type: functional; conditions: for CC50: read-out: pLC50 (the source's name) (converted); for TGI: read-out: pTGI (converted)
[16] = test system: HOP-92; assay: Cytotoxicity against human HOP92 cells; type: functional; conditions: for TGI: read-out: pTGI (converted)
[17] = test system: Malme-3M; assay: Cytotoxicity against human MALME-3M cells; type: functional; conditions: for TGI: read-out: pTGI (converted)
[18] = test system: COLO 205; assay: Cytotoxicity against human COLO205 cells; type: functional; conditions: for TGI: read-out: pTGI (converted)
[19] = test system: MCF7; assay: Cytotoxicity against human MCF7 cells; type: functional; conditions: for CC50: read-out: pLC50 (the source's name) (converted); for TGI: read-out: pTGI (converted)

CC(C)=CCC/C(C)=C/Cc1c(O)cc(/C=C/c2cc(O)c3c(c2)C[C@@H]2C(C)(C)[C@H](O)[C@H](O)C[C@@]2(C)O3)cc1O [SCHWEINFURTHIN A]
GI50 [1]: 2.09 µM
LC50 [1]: 39.8 µM
TGI [1]: 15.8 µM
GI50 [2]: 6.17 µM
LC50 [2]: 47.9 µM
TGI [2]: 20.9 µM
GI50 [3]: 1.2 µM
CC50 [3]: 53.7 µM
TGI [3]: 15.1 µM
GI50 [4]: 12.9 µM
CC50 [4]: 74.1 µM
TGI [4]: 32.4 µM
GI50 [5]: 0.0646 µM
LC50 [5]: 72.4 µM
TGI [5]: 14.1 µM
GI50 [6]: 2.82 µM
CC50 [6]: 61.7 µM
TGI [6]: 25.7 µM
GI50 [7]: 2.57 µM
LC50 [7]: 41.7 µM
TGI [7]: 17 µM
GI50 [8]: 6.92 µM
LC50 [8]: 61.7 µM
TGI [8]: 25.1 µM
GI50 [9]: 0.038 µM
LC50 [9]: 38.9 µM
TGI [9]: 17 µM
GI50 [10]: 2.57 µM
LC50 [10]: 26.9 µM
TGI [10]: 10 µM
GI50 [11]: 1.29 µM
LC50 [11]: 34.7 µM
TGI [11]: 11 µM
IC50 [12]: 43 µg/mL (≈ 78.4 µM)
GI50 [13]: 0.158 µM
LC50 [13]: 43.7 µM
TGI [13]: 15.1 µM
GI50 [14]: 3.8 µM
CC50 [14]: 41.7 µM
TGI [14]: 12.9 µM
GI50 [15]: 0.17 µM
CC50 [15]: 36.3 µM
TGI [15]: 12.9 µM
GI50 [16]: 2.57 µM
LC50 [16]: 46.8 µM
TGI [16]: 15.1 µM
GI50 [17]: 4.27 µM
LC50 [17]: 53.7 µM
TGI [17]: 20 µM
GI50 [18]: 1.1 µM
LC50 [18]: 7.08 µM
TGI [18]: 2.82 µM
GI50 [19]: 0.0269 µM
CC50 [19]: 85.1 µM
TGI [19]: 8.13 µM

COc1cc(/C=C/c2cc(O)c(C/C=C(\C)CCC=C(C)C)c(O)c2)cc2c1O[C@]1(C)C[C@@H](O)[C@@H](O)C(C)(C)[C@H]1C2 [SCHWEINFURTHIN B]
GI50 [1]: 4.27 µM
LC50 [1]: 43.7 µM
TGI [1]: 20 µM
GI50 [2]: 3.39 µM
LC50 [2]: 42.7 µM
TGI [2]: 17 µM
GI50 [3]: 3.39 µM
CC50 [3]: 50.1 µM
TGI [3]: 19.1 µM
GI50 [4]: 11 µM
CC50 [4]: 83.2 µM
TGI [4]: 39.8 µM
GI50 [5]: 0.347 µM
LC50 [5]: 36.3 µM
TGI [5]: 6.17 µM
GI50 [6]: 3.39 µM
CC50 [6]: 28.8 µM
TGI [6]: 15.1 µM
GI50 [7]: 6.17 µM
LC50 [7]: 52.5 µM
TGI [7]: 21.9 µM
GI50 [8]: 12 µM
LC50 [8]: 67.6 µM
TGI [8]: 28.8 µM
GI50 [9]: 0.38 µM
LC50 [9]: 30.9 µM
TGI [9]: 17 µM
GI50 [10]: 3.02 µM
LC50 [10]: 39.8 µM
TGI [10]: 17 µM
GI50 [11]: 2.4 µM
LC50 [11]: 42.7 µM
TGI [11]: 18.2 µM
IC50 [12]: > 100 µg/mL
GI50 [13]: 0.933 µM
LC50 [13]: 38 µM
TGI [13]: 14.1 µM
GI50 [14]: 6.92 µM
CC50 [14]: 75.9 µM
TGI [14]: 30.2 µM
GI50 [15]: 0.251 µM
CC50 [15]: 42.7 µM
TGI [15]: 12.9 µM
GI50 [16]: 0.933 µM
LC50 [16]: 41.7 µM
TGI [16]: 12.9 µM
GI50 [17]: 8.71 µM
LC50 [17]: 69.2 µM
TGI [17]: 26.9 µM
GI50 [18]: 0.617 µM
LC50 [18]: 6.76 µM
TGI [18]: 2.4 µM
GI50 [19]: 0.2 µM
CC50 [19]: 38.9 µM
TGI [19]: 6.03 µM
